Tested on: USP8 MIT domain
Assay: SPOT array of predicted peptides from known interactors, USP8 MIT domain
Type: binding, human
Conditions: for Percentage (%) normalized to highest intensity and corrected for background: SPOT array, GST-tagged MIT 100 µM, overnight 4 °C, chemiluminescence, highest intensity = DNAJB6; for Percentage (%): Supplementary Fig. 4B, normalized to the highest intensity and corrected for background
Source text: To further assess the SLiM-based interactions of the USP8 MIT domain, we designed a peptide array tiling 24 potential binding sites in previously reported USP8 interactors. We used SLiMSearch to search for peptides that contain shorter or longer matches to the motif (Supplementary Table S4A). […] The DNAJB6_118 - 130 peptide was predicted as a binder based on a partial DFx{2,3}R motif. The DNAJB6-USP8 interaction is supported by previous GST-pulldown experiments and colocalization of the two proteins in male mouse germ cells, and the interaction is thought to be of importance to the protein quality control to yield functional spermatozoa. In the case of the CDH1_863 - 877 peptide it was predicted as USP8 MIT ligand based on the presence of an RFxxL motif. The previous support of the CDH1-USP8 interaction is based on proximity labelling mass spectrometry, and our results thus provide evidence for a binary interaction between the two proteins and define a binding site. To confirm that the motifs used to predict the interactions were of importance for binding we designed an alanine scanning peptide SPOT array analysis of the DNAJB6_118 - 130 and the CDH1_863 - 877 peptides. […] In summary, we find that the USP8 MIT domain binds to a MIM1-like motif that can be expressed by [[…]], as well as degenerate variants thereof. […] The membranes of predicted peptides were purchased by JPT Peptide Technologies (Berlin, Germany). The membranes were incubated with blocking buffer containing 5% skim milk in TBST (50 mM Tris, 150 mM NaCl pH 7.5, 0.05% Tween-20) for two hours at room temperature. The blocked membranes were incubated with GST-tagged proteins (100 μM for MIT domain and 150 μM for the Rhodanese domain) in blocking buffer overnight at 4 °C. After rinsed with TBST the membranes were incubated with HRP-conjugated anti-GST antibody (Cytiva, RPN1236; 1:3000 dilution) in blocking buffer for 1 h at 4 °C and subsequently rinsed with TBST to remove any excess antibody. The ECL reagent (Clarity Max Western ECL substrate, 1705062, BioRad) was used for chemiluminescence read-out with the ChemiDoc Imaging system (BioRad). The images were analysed with Fiji (ImageJ2 version 2.9.0). […] used to design the peptide arrays with known interactors predicted to contain the motifs. The background signal intensity was subtracted, and the corrected signal intensities were normalized to the positive control and presented as percentage.

## MVSWGRFICLVVVTM [FGFR2, Fibroblast growth factor receptor 2 peptide]
  Percentage (%) normalized to highest intensity and corrected for background: 2.8%
  Percentage (%): 3%

## NKTLEYKIEILEKT [KIF23, Kinesin-like protein KIF23 peptide]
  Percentage (%) normalized to highest intensity and corrected for background: 7%
  Percentage (%): 7%

## PPSSSLELLASLTP [PTPN23, Tyrosine-protein phosphatase non-receptor type 23 peptide]
  Percentage (%) normalized to highest intensity and corrected for background: -7%
  Percentage (%): -7%

## PQYTNLGLLNSMDQ [TP63 A14, Tumor protein 63 peptide, array position A14]
  Percentage (%) normalized to highest intensity and corrected for background: 8%
  Percentage (%): 8%

## QAAIALSLLESPKI [USP28, Ubiquitin carboxyl-terminal hydrolase 28 peptide]
  Percentage (%) normalized to highest intensity and corrected for background: 1.29%
  Percentage (%): 1%

## QGPALRYFQLPPRAA [SHANK1 B6, SHANK1 peptide, array position B6]
  Percentage (%) normalized to highest intensity and corrected for background: 7%
  Percentage (%): 7%

## RFVVALVLLNVAAA [TGOLN2, Trans-Golgi network integral membrane protein 2 peptide]
  Percentage (%) normalized to highest intensity and corrected for background: -4.72%
  Percentage (%): -5%

## RGVLALALLALALC [RNF149, E3 ubiquitin-protein ligase RNF149 peptide]
  Percentage (%) normalized to highest intensity and corrected for background: 3%
  Percentage (%): 3%

## RPHDIFRQRKQNT [VIRMA, Protein virilizer homolog peptide]
  Percentage (%) normalized to highest intensity and corrected for background: 6.6%
  Percentage (%): 7%

## SEENGLPLLVLPPP [SHANK1 A11, SHANK1 peptide, array position A11]
  Percentage (%) normalized to highest intensity and corrected for background: -5.69%
  Percentage (%): -6%

## SGETDLKLLEESIA [NR3C1, Glucocorticoid receptor peptide]
  Percentage (%) normalized to highest intensity and corrected for background: -4.47%
  Percentage (%): -4%

## SRGLQLLLLSCAYS [CD83, CD83 antigen peptide]
  Percentage (%) normalized to highest intensity and corrected for background: 5.58%
  Percentage (%): 6%

## TEQETLALLEVKRS [TMEM79, Transmembrane protein 79 peptide]
  Percentage (%) normalized to highest intensity and corrected for background: -4%
  Percentage (%): -4%
